{"source": "patent US5124313A", "about": "“Methods of improved skin care and the treatment of dermatological conditions” (priority 1989, dated 1992)", "key": {"[1]": {"details": "cited from earlier work; for allergic responses / skin irritation / sensitization: human, in vivo"}, "[2]": {"details": "human, in vivo", "experimental": "Ten subjects, 4 females and 6 males, ranging in age from 18 to 27 years participated with informed consent.\nThe products were applied to alternate inner wrist surfaces, in areas of 2.5×1.0 cm, rubbed into the skin for aproximately 5-10 seconds, using a gloved finger as an applicator and applying equal pressure in all applications. […] Mixing, applications and assays were performed in subdued light in order to decrease photodecomposition. The application sites were loosely covered with protective aluminum foil. After 30 minutes of exposure, the surface products were removed by rinsing with alcohol followed by air-drying. A strip of 3M Tape was then applied to the application site in a slightly larger rectangle than the site and removed. This stripping process was repeated for a total of 15 times and was designed to removed the entire stratum corneum. The combined strips were eluted with methanol and the eluates were assayed for RP by HPLC, using a Lichrosorb Si 60/5 micron column, after separation and saponification according to a modified USP XXI procedure."}, "[3]": {"assay": "In vitro water/solvent partitioning (dispersion, centrifugation, HPLC of supernatant)", "assay_type": "physicochemical", "experimental": "The method s for determining in vitro water/solvent partitioning was as follows:\nIndividual dispersions of the above were prepared in the following solvents:\n(1) Distilled water at 23° C.\n(2) Distilled water at 70° C.\nThe dispersions were made under nitrogen and protected from light, using high shear agitation to yield particles of less than 0.5 u in diameter. The concentrations in each case were calculated to yield 4,000 i.u. per ml. The dispersions were centrifuged until clear supernatant liquids were obtained. Aliquouts of 50 uL of the clear supernatants were injected into the HPLC columns and the resulting peaks were evaluated, using a methanol solution of retinyl palmitate as the standard."}, "[4]": {"details": "present practices of use and concentration; cited from earlier work"}, "[5]": {"tested_on": "fetuses", "details": "rat; topical administration to the mother; cited from earlier work"}, "[6]": {"details": "topical; cited from earlier work"}, "[7]": {"tested_on": "fetuses", "details": "rabbit; topical administration to the mother; cited from earlier work"}, "[8]": {"details": "n-Hexane at 250° C. (so in the source), dispersion calculated to 4,000 i.u. per ml"}, "[9]": {"details": "n-Hexane, dispersion calculated to 4,000 i.u. per ml"}}, "note": "Read-outs that look alike come from different tables or passages of the source."}
{"smiles": "CC1=C(/C=C/C(C)=C/C=C/C(C)=C\\C(=O)O)C(C)(C)CCC1", "note": "[Accutane®, 13-cis-Retinoic acid]", "values": [{"measurement": "birth defects", "setting": "[1]; children of women treated during pregnancy", "value": "extensive birth defects in children of women treated with the drug during pregnancy"}, {"measurement": "allergic responses / skin irritation / sensitization", "setting": "[1]", "value": "Allergic responses have also been reported"}]}
{"smiles": "CCCCCCCCCCCCCCCC(=O)OC/C=C(C)/C=C/C=C(C)/C=C/C1=C(C)CCCC1(C)C", "note": "[RP, retinyl palmitate]", "values": [{"measurement": "% Retinyl Palmitate Absorbed, average +/- Std. Deviation", "setting": "[2]", "value": "0.84 +/- 0.21%"}, {"measurement": "solubility in n-hexane (in words)", "setting": "[3]", "value": "good solubility"}, {"measurement": "solubility in water (in words)", "setting": "[3]", "value": "no solubility in water"}, {"measurement": "Absorption, both HPLC peaks (or absence of peak)", "setting": "[3]; Water at 23° C., dispersion calculated to 4,000 i.u. per ml", "value": "No peak"}, {"measurement": "Absorption, both HPLC peaks (or absence of peak)", "setting": "[3]; Water at 70° C., dispersion calculated to 4,000 i.u. per ml", "value": "No Peak"}, {"measurement": "Absorption, both HPLC peaks (or absence of peak)", "setting": "[3]; [8]", "value": 0.10}, {"measurement": "HPLC Peak #2", "setting": "[3]; [8]", "value": 0.070}, {"measurement": "Absorption equivalent", "setting": "[3]; [9]", "value": "~4,000 i.u."}, {"measurement": "HPLC Peak #1", "setting": "[3]; [9]", "value": 0.031}, {"measurement": "partitioning / migration into water and hexane (in words)", "setting": "[3]; water and hexane", "value": "no migration into water with some fractionation into hexane"}, {"measurement": "safety as cosmetic ingredient", "setting": "[4]", "value": "safe as cosmetic ingredients"}]}
{"smiles": "CC1=C(/C=C/C(C)=C/C=C/C(C)=C/C(=O)O)C(C)(C)CCC1", "note": "[Tretinoin, All-trans-retinoic acid]", "values": [{"measurement": "fetal abnormalities", "setting": "[5]", "value": "abnormalities in rat and rabbit fetuses"}, {"measurement": "treatment of photoaged skin", "setting": "[6]", "value": "effective for the treatment of photoaged skin"}, {"measurement": "fetal abnormalities", "setting": "[7]", "value": "abnormalities in rat and rabbit fetuses"}, {"measurement": "allergic responses / skin irritation / sensitization", "setting": "[1]", "value": "severe skin irritation, sensitization and allergic responses"}]}
{"smiles": "CC(C=CC1=C(C)CCCC1(C)C)=CC=CC(C)=CCO", "note": "[retinol, 3,7-dimethyl-9-(2,6,6-trimethyl-1-cyclohexen-1-yl)-2,4,6,8-nonatetraen-1-ol]", "values": [{"measurement": "safety as cosmetic ingredient", "setting": "[4]", "value": "safe as cosmetic ingredients"}]}
